Values quoted from earlier work, collected in patent US20240115492A1, “AN ORODISPERSIBLE PHARMACEUTICAL SOLID DOSAGE FORM OF RASAGILINE” (INTAS PHARMACEUTICALS LTD., priority 2021, published 2024).

C#CCN(C)[C@H](C)Cc1ccccc1 [selegiline]
Selegiline plasma exposure, ODT versus conventional tablets (10 mg orally disintegrated tablets vs conventional 10 mg tablets): twelve-time higher | selegiline absorbed through the mucous membrane of the mouth (ODT form (10 mg), within 1 minute): about 30%
